Target: ATP-dependent translocase ABCB1 (Homo sapiens, UniProt P08183)
Experiment: TP_TRANSPORTER: transepithelial transport (basal to apical) in Caco-2 cells
Type: functional, cell-based

Chain of ATP-dependent translocase ABCB1 (P08183 whole entry): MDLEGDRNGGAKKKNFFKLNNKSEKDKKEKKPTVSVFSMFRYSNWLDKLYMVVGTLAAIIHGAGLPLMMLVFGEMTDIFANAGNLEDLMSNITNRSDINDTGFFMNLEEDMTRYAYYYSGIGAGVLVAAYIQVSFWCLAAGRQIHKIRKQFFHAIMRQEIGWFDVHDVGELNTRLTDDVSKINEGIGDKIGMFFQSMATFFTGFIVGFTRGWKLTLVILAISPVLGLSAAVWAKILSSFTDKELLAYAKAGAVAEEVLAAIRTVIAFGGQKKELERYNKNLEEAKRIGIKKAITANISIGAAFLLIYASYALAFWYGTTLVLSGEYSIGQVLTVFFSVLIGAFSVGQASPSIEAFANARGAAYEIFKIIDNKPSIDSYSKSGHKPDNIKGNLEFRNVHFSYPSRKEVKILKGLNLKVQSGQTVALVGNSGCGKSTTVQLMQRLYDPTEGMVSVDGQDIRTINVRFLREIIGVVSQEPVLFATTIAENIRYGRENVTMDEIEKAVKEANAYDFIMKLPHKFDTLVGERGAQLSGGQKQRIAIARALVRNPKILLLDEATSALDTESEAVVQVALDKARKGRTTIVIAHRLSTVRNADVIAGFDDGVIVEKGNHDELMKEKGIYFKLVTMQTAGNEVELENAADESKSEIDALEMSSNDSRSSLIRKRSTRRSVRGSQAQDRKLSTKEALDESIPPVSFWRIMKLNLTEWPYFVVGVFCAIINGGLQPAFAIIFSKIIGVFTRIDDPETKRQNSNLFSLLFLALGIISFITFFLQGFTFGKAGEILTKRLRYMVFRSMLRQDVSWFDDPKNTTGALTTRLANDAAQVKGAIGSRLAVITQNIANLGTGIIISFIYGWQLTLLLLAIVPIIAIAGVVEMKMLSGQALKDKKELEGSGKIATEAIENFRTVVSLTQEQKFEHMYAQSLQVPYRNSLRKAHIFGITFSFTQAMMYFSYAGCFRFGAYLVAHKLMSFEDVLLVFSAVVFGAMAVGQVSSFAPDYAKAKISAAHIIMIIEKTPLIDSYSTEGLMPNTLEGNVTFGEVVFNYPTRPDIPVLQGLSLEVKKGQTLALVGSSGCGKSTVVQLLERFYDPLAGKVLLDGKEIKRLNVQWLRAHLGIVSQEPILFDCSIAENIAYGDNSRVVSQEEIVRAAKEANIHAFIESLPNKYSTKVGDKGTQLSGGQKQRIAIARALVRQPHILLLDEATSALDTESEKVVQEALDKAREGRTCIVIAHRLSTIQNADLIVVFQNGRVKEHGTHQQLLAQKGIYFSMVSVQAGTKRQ

- Activity: substrate [+]
Compound: CC(=O)O[C@@]12CO[C@@H]1C[C@H](O)[C@@]1(C)C(=O)[C@H](O)C3=C(C)[C@@H](OC(=O)[C@H](O)[C@@H](NC(=O)OC(C)(C)C)c4ccccc4)C[C@@](O)([C@@H](OC(=O)c4ccccc4)[C@H]21)C3(C)C.O.O.O [DOCETAXEL]

From ChEMBL document CHEMBL2073992, “Polarized transport of docetaxel and vinblastine mediated by P-glycoprotein in human intestinal epithelial cell monolayers” (Biochem Pharmacol, 1994)
